{"source": "patent US6869929B2", "about": "“Use of transcription factors for treating inflammation and other diseases” (Beth Israel Deaconess Medical Center, priority 2000, dated 2005)", "key": {"COX-2 promoter": {"tested_on": "COX-2 promoter", "test": "COX-2 promoter luciferase construct (pXP2/COX-2) in RAW 264.7 cells", "format": "cell-based, human", "settings": "luciferase 16 h", "description": "Full-length and dominant-negative mutant ESE-1 cDNAs were inserted into the pCI (Promega) eukaryotic expression vector as described (Oettgen, P., et al. et al. 1997, Mol Cell Biol 17:4419-33). The human COX-2 promoter spanning −170 to +103, kindly provided by Dr. Leslie J. Crofford, University of Michigan, (14) was cloned into the pXP2 luciferase vector (pXP2/COX-2).\n(§1) Cotransfections of 3-8×10^5 cells were carried out with 600 ng reporter gene construct DNA and 200 ng expression vector DNA using LipofectAMINE PLUS (Gibco-BRL) for 16 hours as described (Oettgen, P., et al. et al., 1997, Mol Cell Biol 17:4419-33). Transfections were performed independently in duplicate and repeated 3 to 4 times with different plasmid preparations with similar results.\nWe were interested to know which genes that are associated with inflammatory responses are targeted by ESE-1. We focused on the COX-2 gene, an important target for IL-1β, TNF-α, and LPS in inflammation. Furthermore, the COX-2 promoter contains multiple putative Ets binding sites that are potential targets for ESE-1. A COX-2 promoter luciferase construct, pXP2/COX-2, was transfected into RAW 264.7 cells in the absence or presence of the ESE-1 expression vector, pCI/ESE-1. ESE-1 enhanced COX-2 promoter activity more than 10-fold (FIG. 13a). […]"}, "ICAM-2 promoter": {"tested_on": "ICAM-2 promoter", "test": "Cotransfection of ESE-1 with luciferase reporter constructs of potential target genes", "format": "cell-based", "settings": "cotransfection of expression plasmid with luciferase reporter", "description": "(§2) Co-transfections of 2×10^5 RAW cells or RASMCs were carried out with 0.6 μg reporter gene construct DNA and 0.6 μg expression vector DNA using 6 μl lipofectamine (Gibco-BRL) as described (Oettgen, P., et al. 1996. Characterization of NERF, a novel transcription factor related to the Ets factor ELF-1. Mol Cell Biol 16:5091-106). The cells were harvested 16 hours after transfection and assayed for luciferase activity. Transfections for every construct were performed independently in duplicates and repeated 3 times with two different plasmid preparations with similar results. Cotransfection of a second plasmid for determination of transfection efficiency was omitted because potential artifacts with this technique have been reported and because many commonly used viral promoters contain potential binding sites for ets factors (Farr, A., and A. Roman. 1992. A pitfall of using a second plasmid to determine transfection efficiency. Nucleic Acids Res 20:920).\nIn an attempt to identify target genes for ESE-1, the ability of ESE-1 to transactivate the promoters of several genes that are induced in response to inflammatory stimuli were tested. […] Transactivation of the ICAM-2 promoter by ESE-1 led to a 3.5 fold induction. […] The NOS2 gene promoter has two important regulatory regions, one that is upstream (−1100 to −800) and one that is in the more proximal promoter (−234 to +31). […]"}, "COL2A1 promoter [1]": {"tested_on": "COL2A1 promoter", "test": "COL2A1 promoter luciferase cotransfection in T/C-28a2 cells", "format": "cell-based, human", "settings": "T/C-28a2; pGL3 construct; highest concentrations tested", "description": "(§3) The COL2A1 sequence spanning −577 to +3428 bp (Goldring M B, et al, J Cell Biochem 1994;54:85-99, 39) was cloned into the pGL2-basic (pGL2B) luciferase reporter gene vector (Promega,) and named pGL2-COL2/4.0. Deletion constructs containing −577/+125 bp, −131/+125 bp, −87/+125 bp were prepared by enzyme digestion of pGL2-COL2/4.0 using PstI, ApaI, and PuuII, followed by ligation. For the deletion constructs −45/+125 bp, −83/+7 bp, and −45/+7 bp, PCR products were generated as described (Osaki et al.) and cloned into the pGL2-Basic luciferase vector. These reporter constructs were used as templates to generate point mutations or internal deletions by PCR mutagenesis employing the oligonucleotides listed in FIG. 16 and the QuikChange™ Site-Directed Mutagenesis Kit (Stratagene, La Jolla, Calif.). DNA fragments containing point mutations were then cloned into the pGL2B vector and confirmed by DNA sequencing using a G2 primer on pGL2 DNA. Deletions were also made in the −577/+127 bp COL2A1 promoter construct using the ExSite™ PCR-Based Site-Directed Mutagenesis Kit (Stratagene).\n(§4) Transient transfection experiments were carried out in C-28/I2 cells using LipofectAMINE PLUS™ Reagent (Life Technologies). Cells were seeded in 6-well tissue culture plates at 3.5×10^5 cells/well in DMEM/F12 containing 10% FCS 24 h prior to transfection. For each well, 1 μg of COL2A1-luciferase construct, 6 μl of PLUS reagent and 92 μl of serum-free DMEM/F12 were mixed and incubated for 15 min at room temperature. LipofectAMINE+ reagent (4 μl) in 100 μl of serum-free medium was then added to each reaction mixture and incubation was continued for an additional 30 min at room temperature. Finally, the transfection mixture was combined with 800 μl of serum-free medium and the lipid-nucleic acid complex was transferred to the washed cell monolayer in each well. After incubation for 4 h at 37° C., the transfection mix was diluted with an equal volume of DMEM/F12 containing 2% Nutridoma-SP, and incubation continued for 18 h in the absence or presence of IL-1β. For cotransfections, the cells were incubated for 24 h to permit expression of recombinant proteins prior to treatment with IL-1β for a further 18 h. Cell lysates were prepared by extraction with 200 μl of Reporter Lysis Buffer (Promega) and the protein content was determined using the Coomassie Plus Protein Assay Reagent (PIERCE). Luciferase activities were determined by chemiluminescence assay using the Autolumat LB953 luminometer (EG&G Berthold, Oak Ridge, Tenn.), normalized to the amount of protein. Each data point was calculated as the mean±standard deviation for three independently transfected cultures from one representative of at least three experiments. […]"}, "NOS2 promoter [2]": {"tested_on": "NOS2 promoter", "test": "ESE-1 transactivation of NOS2 promoter luciferase reporter, cotransfection in RAW cells", "format": "cell-based, murine", "settings": "cotransfection with NOS2 promoter", "description": "(§5) A 1516 and 265 bp fragment corresponding to nucleotides (−1485 to +31) and (−234 to +31) of the murine NOS2 gene promoter were subcloned into the PGL2 luciferase reporter(Promega).\nas §2\nThe ability of ESE-1 DN 1 to block transactivation of the NOS2 promoter was tested in RAW cells. Cotransfection of ESE-1 with the NOS2 promoter led to an approximate 12-fold increase in transactivation. […]"}, "COL2A1 promoter [3]": {"tested_on": "COL2A1 promoter", "test": "COL2A1 promoter/intron deletion constructs, transient transfection in C-28/I2 cells", "format": "cell-based, human", "description": "as §3\nas §4, with “For cotransfections, the cells were incubated for 24 h to permit expression of recombinant proteins prior to treatment with IL-1β for a further 18 h.” left out\nTo localize the responses to IL-1β and ESE-1 in the COL2A1 promoter, we made several 5′-deletions of the −577/+127 bp promoter construct, which we had previously determined to be responsive to IL-1β."}, "NOS2 promoter [4]": {"tested_on": "NOS2 promoter", "test": "LPS (endotoxin) induction of NOS2 promoter luciferase reporter in RAW cells", "format": "cell-based, murine", "settings": "response to endotoxin (LPS)", "description": "as §5, §2\nIn the presence of LPS, the ESE-1 DN1 protein blocked induction of the NOS2 promoter by LPS by approximately 70-75%. (See FIG. 21C)."}, "ESE-1 promoter": {"tested_on": "ESE-1 promoter", "test": "ESE-1 promoter luciferase construct (pXP2/ESE-1) transfection", "format": "cell-based, human", "settings": "RAW 264.7 cells; 16 h", "description": "as §1\nTo investigate the molecular mechanism by which IL-1 β and LPS regulate ESE-1 expression, we examined the response of an ESE-1 promoter luciferase construct after transfection using two cytokine responsive non-epithelial cell types, U-138 MG human glial cells and RAW 264.7 cells, a murine macrophage cell line (Oettgen, P., et al. 1999, Genomics 55:358-62). Whereas the parental pXP2 vector was not stimulated by IL-1β, in U-138 MG cells, IL-1β increased ESE-1 promoter activity up to 5-fold (FIG. 12a). Similarly, LPS enhanced ESE-1 promoter activity ˜9-fold in RAW 264.7 cells (FIG. 12b)."}, "ESE-1": {"tested_on": "ESE-1", "test": "ESE-1 mRNA RT-PCR in THP-1 monocytic cells", "format": "cell-based, human", "settings": "THP-1 cells; within one hour", "description": "U-87 Mg and U-138 Mg (human glioma), THP-1 (human monocytic), RAW 264.7 (murine monocytic), LB-12 (human osteoblast-like large T antigen transformed bone marrow stromal cells), and human chondrocytes were grown and treated with cytokines as described (Apperley, J., et al. 1990. J Bone Mineral Res. 5:S93; Goldring, M. B., et al. 1994. J Clin Invest 94:2307-16; Goldring, S. R., et al. 1983. J Bone Joint Surg 65:575-84; Libermann, T. A., et al. 1987. Embo J. 6:1627-1632).\ncDNAs were generated from 1 μg of total RNA using Ready-To-Go™ You-prime First-Strand Beads (Amersham Pharmacia Biotech Inc). RT-PCR amplifications of 0.1 μg cDNA were carried out using a MJResearch thermal cycler PTC-100 as follows: 5 min at 94° C., 20-37 cycles of 30 sec at 94° C., 30 sec at 56° C., and 30 sec at 72° C., followed by 5 min at 72° C. (Oettgen, P., et al. 2000, J Biol Chem 275:1216-25). The sequences of the human ESE-1 primers and the primers for human GAPDH were as described (Oettgen, P., et al. 1999, J Biol Chem 274:29439-52).\nMacrophages represent an additional cell type present within RA synovial tissues and are a major target of bacterial endotoxin. We, therefore, examined the effects of lipopolysaccharide (LPS) on ESE-1 expression in monocytes using the human monocytic cell line, THP-1 (FIG. 11e)."}}}
{"substance": "ESE-1: full-length Ets transcription factor ESE-1 overexpressed from the pCI expression vector", "values": [{"measurement": "induction of COX-2 promoter activity", "setting": "COX-2 promoter", "result": "more than 10 fold"}, {"measurement": "induction of the ICAM-2 promoter", "setting": "ICAM-2 promoter", "result": 3.5, "unit": "fold"}, {"measurement": "inhibition of COL2A1/4.0 activity", "setting": "COL2A1 promoter [1]", "result": 20, "unit": "%"}, {"measurement": "increase in transactivation of the NOS2 promoter", "setting": "NOS2 promoter [2]", "result": "~12", "unit": "fold"}, {"measurement": "response of -131/+127 and -83/+127 bp constructs", "setting": "COL2A1 promoter [3]", "result": "did not respond"}, {"measurement": "inhibition of -577/+127, -530/+127, -403/+127 bp constructs", "setting": "COL2A1 promoter [3]; 200 ng, highest amount", "result": "levels of inhibition similar to IL-1β"}, {"measurement": "increased expression of pGL2P+2370/+2672 and pGL2B-28/+2122 constructs", "setting": "COL2A1 promoter [3]; overexpression", "result": "~10", "unit": "fold"}]}
{"substance": "lipopolysaccharide [LPS]", "values": [{"measurement": "increase in NOS2 promoter activity", "setting": "NOS2 promoter [4]", "result": "~14", "unit": "fold"}, {"measurement": "increase in ESE-1 promoter activity", "setting": "ESE-1 promoter", "result": "~9", "unit": "fold"}, {"measurement": "ESE-1 expression", "setting": "ESE-1", "result": "induced ESE-1 expression"}, {"measurement": "induction of COX-2 promoter activity", "setting": "COX-2 promoter", "result": "more than 20 fold"}]}
